Holding throughout (type): biochemical
In one test the target is T1, Ret(h) (Homo sapiens, UniProt P07949).
T1 construct: purchased Caliper Life Sciences
The experiment in a line: Inhibition of other kinases IC50 (Table 2). On the procedure:
(§1) The Aurora and other kinase assays described here were performed on two Caliper Life Sciences systems, the LC3000 and the Desktop Profiler. These provide data on enzyme activity via measurement of the relative amounts of phosphorylated or unphosphorylated fluorescently labelled substrate peptide at the end of an enzymatic reaction. These different states of peptide are resolved by applying a potential difference across the sample. The presence of a charged phosphate group on the product (as opposed to the substrate) causes a different peptide mobility between the two peptides. This is visualized by excitation of a fluorescent label on the substrate and product peptides and represented as peaks within the analysis software.

For another test, the target named is T2, Tie2(h) (Homo sapiens, UniProt Q02763).
T2 construct: purchased Caliper Life Sciences
The experiment in a line: Inhibition of other kinases IC50 (Table 2). On the procedure:
as §1

The next test has as its target T3, IRAK4(h) (Homo sapiens, UniProt Q9NWZ3).
T3 construct: purchased Caliper Life Sciences
T3 sequence (Q9NWZ3 1-460): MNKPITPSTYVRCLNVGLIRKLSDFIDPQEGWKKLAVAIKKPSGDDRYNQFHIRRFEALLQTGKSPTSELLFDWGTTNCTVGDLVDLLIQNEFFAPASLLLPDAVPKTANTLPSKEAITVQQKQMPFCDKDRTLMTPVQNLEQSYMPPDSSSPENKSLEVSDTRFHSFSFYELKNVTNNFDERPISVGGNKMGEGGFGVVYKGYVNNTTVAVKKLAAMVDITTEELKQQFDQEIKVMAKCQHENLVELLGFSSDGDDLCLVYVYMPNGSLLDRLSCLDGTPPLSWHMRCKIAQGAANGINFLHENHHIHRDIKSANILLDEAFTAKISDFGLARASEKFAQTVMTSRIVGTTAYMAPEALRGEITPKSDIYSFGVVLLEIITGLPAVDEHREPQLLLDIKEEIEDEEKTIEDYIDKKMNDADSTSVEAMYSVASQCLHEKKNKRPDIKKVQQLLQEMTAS
The experiment in a line: Inhibition of other kinases IC50 (Table 2). On the procedure: as §1

In another test the test system is smMLCK. The experiment in a line: Other kinases, inhibition at 1 μM (Table 3). Summed up: (§2)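 Quench: 10 mM EDTA in 100 mM HEPES pH 7.5, 0.015% Brij-35, after 90 min at 25 °C. Before that, compound (single concentration) and kinase reacted with labelled peptide/ATP. Product/substrate peak ratio gave activity, expressed as % inhibition.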
Another test concerns the target T4, MARK3 (Homo sapiens, UniProt P27448).
T4 construct: purchased Caliper Life Sciences
The experiment in a line: Other kinases, inhibition at 1 μM (Table 3). In outline: as §2

The next test concerns the target T5, PKD2 (Homo sapiens, UniProt Q9BZL6).
T5 construct: purchased Caliper Life Sciences
The experiment in a line: Other kinases, inhibition at 1 μM (Table 3). Summed up:
as §2

The next test addresses T6, SAPK4 (Homo sapiens, UniProt O15264).
T6 construct: purchased Caliper Life Sciences
The experiment in a line: Other kinases, inhibition at 1 μM (Table 3). Summed up: as §2

The target of the next test is T7, IKK-epsilon (Homo sapiens, UniProt Q14164).
T7 construct: purchased Caliper Life Sciences
The experiment in a line: Other kinases, inhibition at 1 μM (Table 3). In outline:
as §2

For the next test, the target named is T8, SRC (Homo sapiens, UniProt P12931).
T8 construct: purchased Caliper Life Sciences
The experiment in a line: Other kinases, inhibition at 1 μM (Table 3). In outline: as §2

In another test the target is T9, MAPKAP-K1-alpha (Homo sapiens, UniProt Q15418).
T9 construct: purchased Caliper Life Sciences
The experiment in a line: Other kinases, inhibition at 1 μM (Table 3). In outline:
as §2

A further test concerns the target T10, SAPK3 (Homo sapiens, UniProt P53778).
T10 construct: purchased Caliper Life Sciences
The experiment in a line: Other kinases, inhibition at 1 μM (Table 3). In outline:
as §2

In a further test the target is T11, PRAK (Homo sapiens, UniProt Q8IW41).
T11 construct: purchased Caliper Life Sciences
The experiment in a line: Other kinases, inhibition at 1 μM (Table 3). In outline: as §2

A further test has as its target T12, GSK3-beta (Homo sapiens, UniProt P49841).
T12 construct: purchased Caliper Life Sciences
The experiment in a line: Other kinases, inhibition at 1 μM (Table 3). In outline: as §2

The next test concerns MAPK1. The experiment in a line: Other kinases, inhibition at 1 μM (Table 3). Summed up:
as §2

The next test has as its target T13, MSK1 (Homo sapiens, UniProt O75582).
T13 construct: purchased Caliper Life Sciences
The experiment in a line: Other kinases, inhibition at 1 μM (Table 3). Summed up: as §2

The next test has as its target T14, IGF1-R (Homo sapiens, UniProt P08069).
T14 construct: purchased Caliper Life Sciences
The experiment in a line: Other kinases, inhibition at 1 μM (Table 3). In outline:
as §2

Another test has as its target T15, Yes(h) (Homo sapiens, UniProt P07947).
T15 construct: purchased Caliper Life Sciences
The experiment in a line: Other kinases, single-concentration inhibition (Table 3). The conditions noted are these: 1 μM. In outline:
as §2

The target in the next test is T16, Plk1(h) (Homo sapiens, UniProt P53350).
T16 construct: purchased Caliper Life Sciences
The test is described as above. The conditions noted are these: 1 μM. Summed up:
as §2

In another test the target is T17, c-RAF(h) (Homo sapiens, UniProt P04049).
T17 construct: purchased Caliper Life Sciences
Described as above. The conditions noted are these: 1 μM. Summed up:
as §2

A further test deals with T18, p70S6K(h) (Homo sapiens, UniProt P23443).
T18 construct: purchased Caliper Life Sciences
The test is described as above. The conditions noted are these: 1 μM. In outline: as §2

In a further test the target is T19, CHK1(h) (Homo sapiens, UniProt O14757).
T19 construct: purchased Caliper Life Sciences
Described as above. The conditions noted are these: 1 μM. Summed up: as §2

The target of another test is T20, Lyn(h) (Homo sapiens, UniProt P07948).
T20 construct: purchased Caliper Life Sciences
The test is described as above. The conditions noted are these: 1 μM. In outline:
as §2

Another test deals with T21, Plk3(h) (Homo sapiens, UniProt Q9H4B4).
T21 construct: purchased Caliper Life Sciences
The description is as above. The conditions noted are these: 1 μM. Summed up:
as §2

In the next test the target is T22, FGFR1(h) (Homo sapiens, UniProt P11362).
T22 construct: purchased Caliper Life Sciences
The test is described as above. The conditions noted are these: 1 μM. In outline:
as §2

The next test has as its target T23, CHK2(h) (Homo sapiens, UniProt O96017).
T23 construct: purchased Caliper Life Sciences
The test is described as above. The conditions noted are these: 1 μM. Summed up:
as §2

Another test addresses T24, Flt4(h) (Homo sapiens, UniProt P35916).
T24 construct: purchased Caliper Life Sciences
Described as above. The conditions noted are these: 1 μM. In outline:
as §2

The target of a further test is T25, DDR2(h) (Homo sapiens, UniProt Q16832).
T25 construct: purchased Caliper Life Sciences
The description is as above. The conditions noted are these: 1 μM. In outline: as §2

Another test concerns the target T26, NEK6 (Homo sapiens, UniProt Q9HC98).
T26 construct: purchased Caliper Life Sciences
The experiment in a line: Other kinases, inhibition at 1 μM (Table 3). Summed up: as §2

SMILES strings stand for the structures.

This is an account of results in US8815872B2, “Macrocyclics pyrimidines as aurora kinase inhibitors” (Merck Patent GmbH, priority 2008, dated 2014).

T4 sequence (P27448 whole entry, species assumed): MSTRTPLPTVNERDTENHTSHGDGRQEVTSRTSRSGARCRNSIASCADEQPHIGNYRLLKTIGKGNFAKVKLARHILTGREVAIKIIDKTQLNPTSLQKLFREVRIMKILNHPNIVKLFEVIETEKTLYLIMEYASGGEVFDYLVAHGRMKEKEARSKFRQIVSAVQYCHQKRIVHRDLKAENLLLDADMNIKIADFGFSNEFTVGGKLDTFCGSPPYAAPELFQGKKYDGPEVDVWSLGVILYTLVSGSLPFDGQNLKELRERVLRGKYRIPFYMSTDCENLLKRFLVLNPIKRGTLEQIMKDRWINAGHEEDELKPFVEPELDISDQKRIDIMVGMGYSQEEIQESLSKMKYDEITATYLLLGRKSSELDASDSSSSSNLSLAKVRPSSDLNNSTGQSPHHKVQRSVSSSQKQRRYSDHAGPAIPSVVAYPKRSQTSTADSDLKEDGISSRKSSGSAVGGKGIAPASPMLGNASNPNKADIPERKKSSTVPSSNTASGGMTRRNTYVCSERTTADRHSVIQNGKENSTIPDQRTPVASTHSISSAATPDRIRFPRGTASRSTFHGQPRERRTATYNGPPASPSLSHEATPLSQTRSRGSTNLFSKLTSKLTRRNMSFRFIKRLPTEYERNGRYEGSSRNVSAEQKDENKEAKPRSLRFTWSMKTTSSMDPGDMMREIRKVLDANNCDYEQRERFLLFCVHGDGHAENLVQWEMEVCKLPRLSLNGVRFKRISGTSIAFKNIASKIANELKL
T11 sequence (Q8IW41 whole entry, species assumed): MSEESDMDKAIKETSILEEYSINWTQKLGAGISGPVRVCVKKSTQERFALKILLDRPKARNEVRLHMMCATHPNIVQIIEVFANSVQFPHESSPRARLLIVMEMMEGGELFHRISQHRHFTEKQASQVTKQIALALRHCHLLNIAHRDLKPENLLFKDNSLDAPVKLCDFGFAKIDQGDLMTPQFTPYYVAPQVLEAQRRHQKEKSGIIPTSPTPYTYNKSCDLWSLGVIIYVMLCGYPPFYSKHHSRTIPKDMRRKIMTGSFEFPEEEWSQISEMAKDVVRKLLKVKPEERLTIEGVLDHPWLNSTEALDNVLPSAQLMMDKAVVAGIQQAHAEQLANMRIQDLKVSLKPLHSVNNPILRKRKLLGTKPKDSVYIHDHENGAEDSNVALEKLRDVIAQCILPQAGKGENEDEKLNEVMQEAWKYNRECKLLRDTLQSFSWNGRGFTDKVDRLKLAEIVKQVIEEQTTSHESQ
T5 sequence (Q9BZL6 whole entry): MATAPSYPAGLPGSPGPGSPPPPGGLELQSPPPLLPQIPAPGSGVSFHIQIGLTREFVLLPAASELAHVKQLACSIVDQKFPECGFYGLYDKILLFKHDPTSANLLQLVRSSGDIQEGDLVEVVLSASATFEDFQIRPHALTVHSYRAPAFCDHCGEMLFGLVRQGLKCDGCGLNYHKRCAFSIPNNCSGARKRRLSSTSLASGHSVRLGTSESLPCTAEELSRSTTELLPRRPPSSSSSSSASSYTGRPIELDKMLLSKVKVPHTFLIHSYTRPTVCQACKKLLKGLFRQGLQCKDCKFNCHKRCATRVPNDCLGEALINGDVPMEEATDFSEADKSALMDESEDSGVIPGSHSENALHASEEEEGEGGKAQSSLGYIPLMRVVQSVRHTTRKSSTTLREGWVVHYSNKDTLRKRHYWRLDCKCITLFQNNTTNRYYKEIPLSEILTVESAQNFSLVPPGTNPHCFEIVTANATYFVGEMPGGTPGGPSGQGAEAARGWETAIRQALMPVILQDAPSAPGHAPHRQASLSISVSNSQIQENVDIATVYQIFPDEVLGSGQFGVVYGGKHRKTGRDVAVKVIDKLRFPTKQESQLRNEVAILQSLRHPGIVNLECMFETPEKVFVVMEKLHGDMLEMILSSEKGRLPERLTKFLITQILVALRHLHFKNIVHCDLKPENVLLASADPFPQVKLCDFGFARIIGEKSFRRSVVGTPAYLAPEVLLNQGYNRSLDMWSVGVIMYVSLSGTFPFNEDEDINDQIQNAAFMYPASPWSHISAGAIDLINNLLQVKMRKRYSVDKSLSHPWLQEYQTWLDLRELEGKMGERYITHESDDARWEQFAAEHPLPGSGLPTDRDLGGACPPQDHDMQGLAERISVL
T9 sequence (Q15418 whole entry): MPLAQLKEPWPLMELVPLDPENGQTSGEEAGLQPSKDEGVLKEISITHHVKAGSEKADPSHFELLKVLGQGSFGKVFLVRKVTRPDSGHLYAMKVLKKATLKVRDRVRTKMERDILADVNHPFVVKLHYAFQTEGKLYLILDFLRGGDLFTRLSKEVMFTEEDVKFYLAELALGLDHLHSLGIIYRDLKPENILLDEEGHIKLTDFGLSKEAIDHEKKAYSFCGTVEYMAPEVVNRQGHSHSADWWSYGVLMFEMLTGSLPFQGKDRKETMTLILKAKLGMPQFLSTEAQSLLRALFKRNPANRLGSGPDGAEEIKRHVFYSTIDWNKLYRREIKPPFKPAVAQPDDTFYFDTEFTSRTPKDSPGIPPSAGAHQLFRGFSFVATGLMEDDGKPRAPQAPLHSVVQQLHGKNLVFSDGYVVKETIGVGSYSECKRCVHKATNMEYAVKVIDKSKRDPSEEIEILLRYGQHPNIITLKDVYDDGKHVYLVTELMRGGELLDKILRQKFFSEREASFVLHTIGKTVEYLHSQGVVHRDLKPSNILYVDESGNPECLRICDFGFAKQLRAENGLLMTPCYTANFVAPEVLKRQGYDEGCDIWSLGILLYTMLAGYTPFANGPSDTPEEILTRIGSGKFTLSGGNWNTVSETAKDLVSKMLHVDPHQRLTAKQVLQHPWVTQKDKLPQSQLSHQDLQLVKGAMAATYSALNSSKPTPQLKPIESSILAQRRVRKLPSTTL
T14 sequence (P08069 31-1367, species assumed): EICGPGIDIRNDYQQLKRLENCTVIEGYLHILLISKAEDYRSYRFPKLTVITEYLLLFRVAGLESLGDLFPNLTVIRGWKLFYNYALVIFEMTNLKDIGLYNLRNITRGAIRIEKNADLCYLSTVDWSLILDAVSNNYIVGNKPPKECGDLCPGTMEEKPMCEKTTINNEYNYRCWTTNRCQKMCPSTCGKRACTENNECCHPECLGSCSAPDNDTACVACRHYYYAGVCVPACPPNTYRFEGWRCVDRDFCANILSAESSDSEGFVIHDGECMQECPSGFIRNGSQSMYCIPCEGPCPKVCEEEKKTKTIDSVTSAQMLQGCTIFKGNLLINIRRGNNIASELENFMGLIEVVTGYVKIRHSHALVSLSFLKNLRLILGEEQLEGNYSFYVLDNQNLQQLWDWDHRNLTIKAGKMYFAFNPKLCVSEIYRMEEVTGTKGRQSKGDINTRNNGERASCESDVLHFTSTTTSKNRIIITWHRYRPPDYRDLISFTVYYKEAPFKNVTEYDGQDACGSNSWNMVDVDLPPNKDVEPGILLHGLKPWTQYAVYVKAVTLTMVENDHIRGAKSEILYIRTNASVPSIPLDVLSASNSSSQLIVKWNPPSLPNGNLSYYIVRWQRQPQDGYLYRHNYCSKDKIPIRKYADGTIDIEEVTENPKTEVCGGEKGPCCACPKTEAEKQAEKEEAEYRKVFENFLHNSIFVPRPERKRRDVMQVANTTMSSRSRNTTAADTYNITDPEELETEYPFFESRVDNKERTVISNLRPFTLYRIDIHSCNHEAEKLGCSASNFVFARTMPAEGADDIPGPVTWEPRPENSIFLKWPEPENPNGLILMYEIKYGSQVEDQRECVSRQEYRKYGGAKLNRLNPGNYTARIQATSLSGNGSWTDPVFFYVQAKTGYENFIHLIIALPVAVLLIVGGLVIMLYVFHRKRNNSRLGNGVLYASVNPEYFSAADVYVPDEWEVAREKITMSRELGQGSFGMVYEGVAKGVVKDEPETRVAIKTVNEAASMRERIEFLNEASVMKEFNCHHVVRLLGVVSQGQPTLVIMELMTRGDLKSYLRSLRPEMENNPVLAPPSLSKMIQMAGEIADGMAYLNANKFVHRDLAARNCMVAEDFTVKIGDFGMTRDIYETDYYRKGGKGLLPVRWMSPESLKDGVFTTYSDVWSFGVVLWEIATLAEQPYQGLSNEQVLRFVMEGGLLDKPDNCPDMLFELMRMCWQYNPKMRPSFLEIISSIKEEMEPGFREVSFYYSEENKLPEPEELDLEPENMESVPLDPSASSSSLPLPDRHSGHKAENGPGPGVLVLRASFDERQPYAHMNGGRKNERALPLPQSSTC
T8 sequence (P12931 whole entry, species assumed): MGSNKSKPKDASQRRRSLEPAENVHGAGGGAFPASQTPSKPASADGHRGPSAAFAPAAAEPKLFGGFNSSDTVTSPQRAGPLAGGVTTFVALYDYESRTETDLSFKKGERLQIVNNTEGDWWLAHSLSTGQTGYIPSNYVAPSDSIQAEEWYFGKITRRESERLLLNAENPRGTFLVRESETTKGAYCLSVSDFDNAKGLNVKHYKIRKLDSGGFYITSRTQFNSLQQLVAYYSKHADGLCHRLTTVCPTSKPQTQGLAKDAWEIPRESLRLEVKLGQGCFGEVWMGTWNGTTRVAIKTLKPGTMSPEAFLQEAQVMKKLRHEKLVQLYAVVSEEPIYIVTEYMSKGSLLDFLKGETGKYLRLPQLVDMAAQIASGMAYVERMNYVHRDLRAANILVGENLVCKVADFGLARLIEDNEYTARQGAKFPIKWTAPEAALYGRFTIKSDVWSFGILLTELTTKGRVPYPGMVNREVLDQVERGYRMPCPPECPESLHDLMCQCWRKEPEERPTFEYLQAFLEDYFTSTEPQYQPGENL
T6 sequence (O15264 whole entry, species assumed): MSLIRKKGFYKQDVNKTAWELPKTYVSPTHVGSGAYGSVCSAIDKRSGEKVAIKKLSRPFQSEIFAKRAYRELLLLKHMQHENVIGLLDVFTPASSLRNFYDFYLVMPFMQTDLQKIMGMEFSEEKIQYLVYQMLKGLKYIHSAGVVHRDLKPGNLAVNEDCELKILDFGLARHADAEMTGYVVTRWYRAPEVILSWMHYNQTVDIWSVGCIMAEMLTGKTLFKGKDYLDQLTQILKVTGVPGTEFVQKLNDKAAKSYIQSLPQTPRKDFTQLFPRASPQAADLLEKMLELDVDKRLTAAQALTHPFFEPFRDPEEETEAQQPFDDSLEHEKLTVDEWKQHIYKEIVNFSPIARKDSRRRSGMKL

Regarding `NC(=O)[C@H]1[C@H]2C[C@H]3[C@H]1Nc1nc(ncc1F)Nc1cccc(c1)NC(=O)CS[C@@H]3C2` [Example 27], the IC50 on Ret(h) lay in the range of 1 to 100 nM; against Tie2(h), 101 to 1000 nM; against IRAK4(h), 1 to 100 nM.
In the case of `Fc1cnc2nc1NC1CCCC(C1)OC/C=C\COc1cccc(c1)N2` (single isomer, unassigned) [Example 33, (16Z)-6-fluoro-14,19-dioxa-2,4,8,26-tetraazatetracyclo[18.3.1.1˜3,7˜0.1˜9,13˜]hexacosa-1(24),3(26),4,6,16,20,22-heptaene], the “% inhibition smMLCK” value with smMLCK came to 92%. For the same compound, the “% inhibition MARK3” value on MARK3 is 73%. Moreover, the “% inhibition PKD2” value on PKD2 is given as 78%. The inhibition at 1 µM was found to be 79% against SAPK4; 91% at IKK-epsilon; 58% on SRC; 87% on SAPK3; 57% against GSK3-beta; 82% on IGF1-R. The “% inhibition MAPKAP-K1-alpha” value on MAPKAP-K1-alpha turned out to be 56%. In addition, the “% inhibition PRAK” value at PRAK is reported as 80%. In the test on MAPK1, the “% inhibition MAPK1” value was 91%. Also, the “% inhibition MSK1” value on MSK1 was 96%.
Turning to `CN1CCN(c2ccc3cc2OCCS[C@@H]2C[C@@H]4C[C@H]2[C@@H](Nc2nc(ncc2F)N3)[C@H]4C(N)=O)CC1` [Example 22], the “% inhibition Yes(h)” value at Yes(h) is listed as 2%. For the same compound, the “% inhibition Plk1(h)” value on Plk1(h) was found to be 87%. Moreover, the “% inhibition c-RAF(h)” value at c-RAF(h) came out at 107%. Moreover, on p70S6K(h), the “% inhibition p70S6K(h)” value was 83%. Moreover, the “% inhibition CHK1(h)” value at CHK1(h) was determined as 101%. Further, at Lyn(h), the “% inhibition Lyn(h)” value was found to be 12%. Also, the “% inhibition Plk3(h)” value at Plk3(h) is 104%. Besides, on FGFR1(h), the “% inhibition FGFR1(h)” value is reported as 5%. In addition, the “% inhibition CHK2(h)” value at CHK2(h) is 64%. Further, on Flt4(h), the “% inhibition Flt4(h)” value was determined as 11%. Further, the “% inhibition DDR2(h)” value at DDR2(h) worked out at 96%.
As for `NC(=O)[C@H]1[C@H]2C[C@H]3[C@H]1Nc1nc(ncc1F)Nc1cccc(c1)OCCS[C@@H]3C2` [Example 20], the IC50 at Ret(h), against Tie2(h) and against IRAK4(h) was 101 to 1000 nM each time.
On to `NC(=O)[C@H]1[C@H]2C[C@H]3[C@H]1Nc1nc(ncc1F)Nc1cccc(c1)CSS[C@@H]3C2` [Example 10], for which the “% inhibition smMLCK” value with smMLCK amounted to 39%. In addition, the “% inhibition MARK3” value on MARK3 amounted to 74%. Also, the “% inhibition PKD2” value on PKD2 stood at 73%. Also, the inhibition at 1 µM on SAPK4 came to 44%; against IKK-epsilon, 75%; on SRC, 14%; on SAPK3 it was 72%; against GSK3-beta, 19%; on IGF1-R, 2%. The “% inhibition MAPKAP-K1-alpha” value on MAPKAP-K1-alpha came out at 12%. Moreover, the “% inhibition PRAK” value on PRAK amounted to 84%. In the test with MAPK1, the “% inhibition MAPK1” value is given as 78%. The “% inhibition MSK1” value at MSK1 amounted to 77%. Also, the “% inhibition NEK6” value at NEK6 worked out at 93%.
